Key:
[1] = biological target: T1, CDK8/CycC (Homo sapiens, UniProt P49336); test: CDK8 inhibitory activity (Kinase Tracer-236 / Eu-anti-GST fluorescence assay); type: binding; parameters: Percent inhibition of CDK8 activity (%): concentration or dose not given beside the values; details: test compound concentration given as '1 1.1.1\4' [sic]
T1 construct: purchased Carna Biosciences
Method in brief: (§1)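 Tracer-displacement TR-FRET binding assay: compound with kinase, Eu-cryptate anti-GST antibody and 60 nM Kinase Tracer-236 (pre-dilution level), 1 h at room temperature; ex 320 nm, em 615/665 nm. Percent inhibition is relative to no-compound control and a 10 μM control-compound blank.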

[2] = biological target: T2, CDC2L6/CycC (CDK19) (Homo sapiens, UniProt Q9BWU1); test: CDK19 inhibitory activity (Kinase Tracer-236 / Eu-anti-GST fluorescence assay); type: binding; parameters: Percent inhibition of CDK19 activity (%): concentration or dose not given beside the values; details: test compound concentration given as '1 1.1.1\4' [sic]
T2 construct: purchased Carna Biosciences Inc
Method in brief: as §1

[3] = system: human multiple myeloma RPMI8226 cells; test: Inhibitory activity against human multiple myeloma RPMI8226 cell growth (CellTiter-Glo); type: cell-based; details: Homo sapiens, RPMI-8226, 192 h, 1 μM test compound, cultured for 8 days; read-out: Percent inhibition of RPMI8226 cell growth (%)
Method in brief: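 RPMI8226 cells (300/well) cultured 1 day at 37 °C, 5% CO2, then given compound at 1 μM for 8 days. ATP luminescence (CellTiter-Glo) read; percent inhibition relative to 0.1% DMSO wells.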

T1 sequence (P49336 whole entry): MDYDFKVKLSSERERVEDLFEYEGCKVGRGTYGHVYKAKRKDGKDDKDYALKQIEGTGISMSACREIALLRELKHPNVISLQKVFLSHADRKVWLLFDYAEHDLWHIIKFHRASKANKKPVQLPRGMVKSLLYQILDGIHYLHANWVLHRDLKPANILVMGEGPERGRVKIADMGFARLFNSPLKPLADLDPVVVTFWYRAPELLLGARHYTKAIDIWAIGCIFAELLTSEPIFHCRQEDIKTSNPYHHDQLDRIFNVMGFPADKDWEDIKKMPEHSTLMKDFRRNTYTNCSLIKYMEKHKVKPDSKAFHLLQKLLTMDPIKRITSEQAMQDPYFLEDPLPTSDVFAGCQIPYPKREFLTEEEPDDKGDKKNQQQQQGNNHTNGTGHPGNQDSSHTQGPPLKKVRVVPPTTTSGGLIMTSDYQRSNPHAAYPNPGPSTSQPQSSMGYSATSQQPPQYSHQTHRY
T1 sequence (P24863 whole entry partner): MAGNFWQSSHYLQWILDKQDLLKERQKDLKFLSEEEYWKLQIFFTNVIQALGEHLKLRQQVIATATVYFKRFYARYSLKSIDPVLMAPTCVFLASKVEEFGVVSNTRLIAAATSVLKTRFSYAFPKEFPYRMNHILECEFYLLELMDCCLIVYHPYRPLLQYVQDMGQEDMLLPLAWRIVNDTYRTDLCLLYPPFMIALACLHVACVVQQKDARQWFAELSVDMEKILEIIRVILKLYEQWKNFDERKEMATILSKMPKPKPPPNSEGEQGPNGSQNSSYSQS
T2 sequence (Q9BWU1 whole entry): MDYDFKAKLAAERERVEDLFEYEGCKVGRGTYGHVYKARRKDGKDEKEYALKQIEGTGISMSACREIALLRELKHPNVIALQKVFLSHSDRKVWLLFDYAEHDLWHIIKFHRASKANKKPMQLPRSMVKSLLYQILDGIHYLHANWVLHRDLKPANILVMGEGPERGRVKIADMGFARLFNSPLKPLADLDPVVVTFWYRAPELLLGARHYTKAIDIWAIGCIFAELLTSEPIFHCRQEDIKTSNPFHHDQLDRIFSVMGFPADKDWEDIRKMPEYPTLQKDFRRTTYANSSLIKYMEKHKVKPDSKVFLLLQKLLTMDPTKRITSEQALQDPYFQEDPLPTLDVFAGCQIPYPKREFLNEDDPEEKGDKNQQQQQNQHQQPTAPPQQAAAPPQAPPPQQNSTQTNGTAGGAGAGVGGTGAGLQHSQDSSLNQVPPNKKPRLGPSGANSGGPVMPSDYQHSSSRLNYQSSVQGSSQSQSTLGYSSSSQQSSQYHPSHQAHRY
T2 sequence (P24863 whole entry partner): as the sequence (P24863 whole entry partner) above

| Percent inhibition of CDK8 activity (%) [1] | Percent inhibition of CDK19 activity (%) [2] | SMILES | inhibition at 1 µM [3] |
| --- | --- | --- | --- |
| 108% | 101% | CCOCCNC(=O)c1ccc(Oc2sc(C(N)=O)c3c2-c2sncc2CC3)c(C)n1 [Example 119, 8-((6-((2-Ethoxyethyl)carbamoyl)-2-methylpyridin-3-yl)oxy)-4,5-dihydrothieno[3,4-g][1,2]benzothiazole-6-carboxamide] | 68% |
| 104% | 99% | CCOCCNC(=O)c1ccc(Oc2sc(C(N)=O)c3c2-c2sncc2CC3)cc1 [Example 120] | 74% |
| 104% | 101% | COCCN(C)C(=O)c1ccc(Oc2sc(C(N)=O)c3c2-c2sncc2CC3)c(C)n1 [Example 121, 8-((6-((2-Methoxyethyl)(methyl)carbamoyl)-2-methylpyridin-3-yl)oxy)-4,5-dihydrothieno[3,4-g][1,2] benzothiazole-6-carboxamide] | 63% |
| 103% | 102% | COCC(=O)N(C)c1ccc(Oc2sc(C(N)=O)c3c2-c2sncc2CC3)c(C)n1 [Example 126, 8-((6-((Methoxyacetyl)(methyl)amino)-2-methylpyridin-3-yl)oxy)-4,5-dihydrothieno[3,4-g][1,2]benzothiazole-6-carboxamide] | 67% |
| 106% | 100% | COCC(=O)Nc1ccc(Oc2sc(C(N)=O)c3c2-c2sncc2CC3)c(C)n1 [Example 127, 8-((6-((Methoxyacetyl)amino)-2-methylpyridin-3-yl)oxy)-4,5-dihydrothieno[3,4-g][1,2]benzothiazole-6-carboxamide] | 65% |
| 98% | 102% | CC(=O)Nc1ccc(Oc2sc(C(N)=O)c3c2-c2sncc2CC3)c(C)n1 [Example 128, 8-((6-Acetamido-2-methylpyridin-3-yl)oxy)-4,5-dihydrothieno[3,4-g][1,2] benzothiazole-6-carboxamide] | 70% |
| 100% | 98% | CNc1ccc(Oc2sc(C(N)=O)c3c2-c2sncc2CC3)cn1 [Example 129, 8-((6-(Methylamino)pyridin-3-yl)oxy)-4,5-dihydrothieno[3,4-g][1,2] benzothiazole-6-carboxamide] | 66% |
| 102% | 97% | NC(=O)c1sc(Oc2cccnc2)c2c1CCc1cnsc1-2 [Example 132, 8-(Pyridin-3-yloxy)-4,5-dihydrothieno [3,4-g][1,2]benzothiazole-6-carboxamide] | 61% |
| 100% | 99% | CCC(=O)Nc1ccc(Oc2sc(C(N)=O)c3c2-c2sncc2CC3)cn1 [Example 134, 8-((6-(Propionylamino)pyridin-3-yl)oxy)-4,5-dihydrothieno[3,4-g][1,2] benzothiazole-6-carboxamide] | 59% |

More lines, now with the values behind:

| SMILES | Percent inhibition of CDK8 activity (%) [1] | Percent inhibition of CDK19 activity (%) [2] | inhibition at 1 µM [3] |
| --- | --- | --- | --- |
| NC(=O)c1sc(Oc2ccc(C(=O)NC3CC3)nc2)c2c1CCc1cnsc1-2 [Example 118, 8-((6-(Cyclopropylcarbamoyl)pyridin-3-yl)oxy)-4,5-dihydrothieno[3,4-g][1,2] benzothiazole-6-carboxamide] | 104% | 100% | 64% |
| COCCN(C)C(=O)c1ccc(Oc2sc(C(N)=O)c3c2-c2sncc2CC3)cc1 [Example 123] | 100% | 101% | 64% |
| Cc1n[nH]c(C)c1Oc1sc(C(N)=O)c2c1-c1sncc1CC2 [Example 124, 8-((3,5-Dimethyl-1H-pyrazol-4-yl)oxy)-4,5-dihydrothieno[3,4-g][1,2] benzothiazole-6-carboxamide] | 105% | 101% | 70% |
| COCC(=O)N(C)c1ccc(Oc2sc(C(N)=O)c3c2-c2sncc2CC3)cn1 [Example 125, 8-((6-((Methoxyacetyl)(methyl)amino)pyridin-3-yl)oxy)-4,5-dihydrothieno [3,4-g][1,2]benzothiazole-6-carboxamide] | 102% | 101% | 66% |
| NC(=O)c1sc(Oc2ccc(NC(=O)C3CC3)nc2)c2c1CCc1cnsc1-2 [Example 130, 8-((6-((Cyclopropylcarbonyl)amino)pyridin-3-yl)oxy)-4,5-dihydrothieno [3,4-g][1,2]benzothiazole-6-carboxamide] | 101% | 99% | 66% |
| Cc1nc(C(N)=O)ccc1Oc1sc(C(N)=O)c2c1-c1sncc1CC2 [Example 131, 8-((6-Carbamoyl-2-methylpyridin-3-yl)oxy)-4,5-dihydrothieno[3,4-g][1,2] benzothiazole-6-carboxamide] | 101% | 102% | 73% |
| CCC(=O)Nc1ccc(Oc2sc(C(N)=O)c3c2-c2sncc2CC3)c(C)n1 [Example 133, 8-((2-Methyl-6-(propionylamino)pyridin-3-yl)oxy)-4,5-dihydrothieno [3,4-g][1,2]benzothiazole-6-carboxamide] | 110% | 101% | 63% |
| CC(=O)N(C)c1ccc(Oc2sc(C(N)=O)c3c2-c2sncc2CC3)cn1 [Example 135, 8-((6-(Acetyl(methyl)amino)pyridin-3-yl)oxy)-4,5-dihydrothieno[3,4-g][1,2] benzothiazole-6-carboxamide] | 109% | 97% | 55% |
| CCOC(=O)Nc1ccc(Oc2sc(C(N)=O)c3c2-c2sncc2CC3)c(C)n1 [Example 136, Ethyl (5-((6-carbamoyl-4,5-dihydrothieno[3,4-g][1,2]benzothiazol-8-yl)oxy)-6-methylpyridin-2-yl) carbamate] | 107% | 102% | 66% |

— patent publication US9745325B2, “Fused heterocyclic compound” (Takeda Pharmaceutical Company Limited, priority 2014, dated 2017)
